Converted amounts (≈) assume the structure as drawn. The source made the active and inactive calls. No cut-off for these calls is given here.
Experiments:
Enterococcus faecalis = assay: Antibacterial activity against Enterococcus faecalis; type: functional
Bacillus anthracis = assay: microbe, parasite or virus in culture
[1] = tested on: Mycobacterium tuberculosis; assay: microbe, parasite or virus in culture; settings: H37Rv, 168 h
[2] = target: T1, Epoxide hydrolase B (Mycobacterium tuberculosis) (UniProt P95276); assay: Inhibition of Mycobacterium tuberculosis recombinant EphB expressed in Escherichia coli BL21 using CMNPC as substrate at 10 nM after 30 mins by fluorescent assay relative to control
T1 sequence (whole entry): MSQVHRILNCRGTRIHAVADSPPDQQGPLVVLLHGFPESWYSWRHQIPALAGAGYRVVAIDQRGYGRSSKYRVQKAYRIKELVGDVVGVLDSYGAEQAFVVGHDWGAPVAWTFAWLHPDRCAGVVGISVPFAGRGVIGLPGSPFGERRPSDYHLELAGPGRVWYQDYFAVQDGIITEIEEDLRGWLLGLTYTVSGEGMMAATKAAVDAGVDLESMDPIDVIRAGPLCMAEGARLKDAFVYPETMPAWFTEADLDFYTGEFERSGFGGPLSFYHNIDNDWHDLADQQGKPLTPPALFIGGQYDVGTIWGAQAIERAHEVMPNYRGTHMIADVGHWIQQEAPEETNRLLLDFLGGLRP

Escherichia coli [3] = assay: Antibacterial activity against Escherichia coli […] TolC; type: functional
[4] = tested on: Mycolicibacterium smegmatis; assay: microbe, parasite or virus in culture; settings: str. MC2 155, 168 h
Enterococcus faecium = assay: Antibacterial activity against Enterococcus faecium; type: functional
Klebsiella pneumoniae = assay: Antibacterial activity against Klebsiella pneumoniae; type: functional
[5] = target: T2, Hydrolase, alpha/beta hydrolase fold family (Mycobacterium tuberculosis) (UniProt O69638); assay: Inhibition of Mycobacterium tuberculosis recombinant EphE expressed in Escherichia coli BL21 using CMNPC as substrate at 10 nM after 30 mins by fluorescent assay relative to control
T2 sequence (whole entry): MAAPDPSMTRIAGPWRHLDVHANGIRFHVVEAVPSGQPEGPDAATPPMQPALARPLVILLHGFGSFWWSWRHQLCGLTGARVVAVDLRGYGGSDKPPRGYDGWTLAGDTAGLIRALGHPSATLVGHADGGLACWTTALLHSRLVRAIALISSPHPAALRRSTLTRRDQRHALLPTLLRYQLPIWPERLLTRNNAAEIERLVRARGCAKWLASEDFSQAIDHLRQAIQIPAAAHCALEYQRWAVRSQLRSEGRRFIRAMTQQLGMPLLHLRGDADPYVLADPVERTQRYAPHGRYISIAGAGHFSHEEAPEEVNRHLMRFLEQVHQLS

Escherichia coli [6] = assay: Antibacterial activity against Escherichia coli K12; type: functional; settings: K-12
Staphylococcus aureus = assay: Antibacterial activity against Staphylococcus aureus; type: functional
[7] = target: T3, Bifunctional epoxide hydrolase 2 (Homo sapiens, UniProt P34913); assay: Inhibition of human recombinant soluble epoxide hydrolase using CMNPC as substrate after 10 mins by fluorescent assay
T3 sequence (P34913 whole entry): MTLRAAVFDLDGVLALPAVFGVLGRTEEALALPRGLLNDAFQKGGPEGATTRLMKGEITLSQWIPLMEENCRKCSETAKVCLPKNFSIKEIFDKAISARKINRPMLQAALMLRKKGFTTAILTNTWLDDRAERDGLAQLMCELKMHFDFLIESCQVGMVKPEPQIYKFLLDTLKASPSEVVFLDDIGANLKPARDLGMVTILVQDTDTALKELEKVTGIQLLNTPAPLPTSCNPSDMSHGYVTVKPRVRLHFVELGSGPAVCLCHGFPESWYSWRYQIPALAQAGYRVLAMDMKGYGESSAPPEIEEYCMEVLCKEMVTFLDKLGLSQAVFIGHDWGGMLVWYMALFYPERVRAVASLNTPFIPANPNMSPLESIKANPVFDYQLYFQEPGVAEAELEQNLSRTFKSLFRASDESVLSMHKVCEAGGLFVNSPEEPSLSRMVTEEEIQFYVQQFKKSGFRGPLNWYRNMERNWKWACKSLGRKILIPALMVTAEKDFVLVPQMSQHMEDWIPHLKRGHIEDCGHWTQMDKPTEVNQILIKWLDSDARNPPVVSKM

Pseudomonas aeruginosa = assay: Antibacterial activity against Pseudomonas aeruginosa; type: functional
Vero = assay: Cytotoxicity against african green monkey Vero cells after 72 hrs by MTT assay; type: cell-based; settings: Chlorocebus sabaeus

## CCCNC(=O)NC1C2CC3CC(C2)CC1C3 (stereo not drawn)
Enterococcus faecalis
  MIC: > 200 µg/mL
Bacillus anthracis
  MIC: > 200 µg/mL
[1]
  MIC: 12.5 µg/mL (≈ 52.9 µM)
[2]
  inhibition: 51.9%
Escherichia coli [3]
  MIC: > 200 µg/mL
[4]
  MIC: 200 µg/mL (≈ 846 µM)
Enterococcus faecium
  MIC: > 200 µg/mL
Klebsiella pneumoniae
  MIC: > 200 µg/mL
[5]
  inhibition: 73.6%
Escherichia coli [6]
  MIC: > 200 µg/mL
Staphylococcus aureus
  MIC: > 200 µg/mL
[7]
  IC50: 61.4 nM
Pseudomonas aeruginosa
  MIC: > 200 µg/mL
Vero
  IC50: 171 µg/mL (≈ 723 µM)

## CC(CCc1ccccc1)NC(=O)Nc1cccc(C(F)(F)F)c1F (stereo not drawn)
Enterococcus faecalis
  MIC: 100 µg/mL (≈ 282 µM)
Bacillus anthracis
  MIC: > 200 µg/mL
[1]
  MIC: 1.6 µg/mL (≈ 4.52 µM)
[2]
  inhibition: inactive
Escherichia coli [3]
  MIC: 6.25 µg/mL (≈ 17.6 µM)
[4]
  MIC: 6.25 µg/mL (≈ 17.6 µM)
Enterococcus faecium
  MIC: 100 µg/mL (≈ 282 µM)
Klebsiella pneumoniae
  MIC: > 200 µg/mL
[5]
  inhibition: 63.9%
Escherichia coli [6]
  MIC: > 200 µg/mL
Staphylococcus aureus
  MIC: > 200 µg/mL
[7]
  IC50: 1.9 nM
Pseudomonas aeruginosa
  MIC: > 200 µg/mL
Vero
  IC50: 38.5 µg/mL (≈ 109 µM)

## O=C(NCc1cccc(Cl)c1)Nc1cccc(C(F)(F)F)c1F
Enterococcus faecalis
  MIC: > 200 µg/mL
Bacillus anthracis
  MIC: > 200 µg/mL
[1]
  MIC: 1.6 µg/mL (≈ 4.61 µM)
[2]
  inhibition: 16.6%
Escherichia coli [3]
  MIC: > 200 µg/mL
[4]
  MIC: > 200 µg/mL
Enterococcus faecium
  MIC: > 200 µg/mL
Klebsiella pneumoniae
  MIC: > 200 µg/mL
[5]
  inhibition: 15.5%
Escherichia coli [6]
  MIC: > 200 µg/mL
Staphylococcus aureus
  MIC: > 200 µg/mL
[7]
  IC50: 3.7 nM
Pseudomonas aeruginosa
  MIC: > 200 µg/mL
Vero
  IC50: 193 µg/mL (≈ 557 µM)

## O=C(NCC12CC3CC(CC(C3)C1)C2)Nc1ccc(F)c(F)c1F
Enterococcus faecalis
  MIC: > 200 µg/mL
Bacillus anthracis
  MIC: 1.6 µg/mL (≈ 4.73 µM)
[1]
  MIC: 0.01 µg/mL (≈ 0.0296 µM)
[2]
  inhibition: 44.2%
Escherichia coli [3]
  MIC: 1.6 µg/mL (≈ 4.73 µM)
[4]
  MIC: 0.8 µg/mL (≈ 2.36 µM)
Enterococcus faecium
  MIC: > 200 µg/mL
Klebsiella pneumoniae
  MIC: > 200 µg/mL
[5]
  inhibition: 90.8%
Escherichia coli [6]
  MIC: > 200 µg/mL
Staphylococcus aureus
  MIC: 3.12 µg/mL (≈ 9.22 µM)
[7]
  IC50: 0.4 nM
Pseudomonas aeruginosa
  MIC: 50 µg/mL (≈ 148 µM)
Vero
  IC50: 1.18 µg/mL (≈ 3.49 µM)

## COC(=O)c1ccc(NC(=O)NC23CC4CC(CC(C4)C2)C3)cc1O
Enterococcus faecalis
  MIC: > 200 µg/mL
Bacillus anthracis
  MIC: > 200 µg/mL
[1]
  MIC: 0.4 µg/mL (≈ 1.16 µM)
[2]
  inhibition: 26.9%
Escherichia coli [3]
  MIC: > 200 µg/mL
[4]
  MIC: 50 µg/mL (≈ 145 µM)
Enterococcus faecium
  MIC: > 200 µg/mL
Klebsiella pneumoniae
  MIC: > 200 µg/mL
[5]
  inhibition: 79.5%
Escherichia coli [6]
  MIC: > 200 µg/mL
Staphylococcus aureus
  MIC: > 200 µg/mL
[7]
  IC50: 1.2 nM
Pseudomonas aeruginosa
  MIC: > 200 µg/mL
Vero
  IC50: 30.3 µg/mL (≈ 88 µM)

## CC(=O)c1cccc(NC(=O)NC2C3CC4CC(C3)CC2C4)c1 (stereo not drawn)
Enterococcus faecalis
  MIC: > 200 µg/mL
Bacillus anthracis
  MIC: > 200 µg/mL
[1]
  MIC: 0.1 µg/mL (≈ 0.32 µM)
[2]
  inhibition: 80.6%
Escherichia coli [3]
  MIC: > 200 µg/mL
[4]
  MIC: 6.25 µg/mL (≈ 20 µM)
Enterococcus faecium
  MIC: > 200 µg/mL
Klebsiella pneumoniae
  MIC: > 200 µg/mL
[5]
  inhibition: 31.4%
Escherichia coli [6]
  MIC: > 200 µg/mL
Staphylococcus aureus
  MIC: > 200 µg/mL
[7]
  IC50: 0.5 nM
Pseudomonas aeruginosa
  MIC: > 200 µg/mL
Vero
  IC50: 9.7 µg/mL (≈ 31 µM)

## O=C(NC1CCCCC1)NC1C2CC3CC(C2)CC1C3 (stereo not drawn)
Enterococcus faecalis
  MIC: > 200 µg/mL
Bacillus anthracis
  MIC: > 200 µg/mL
[1]
  MIC: 10 µg/mL (≈ 36.2 µM)
[2]
  inhibition: 11.6%
Escherichia coli [3]
  MIC: > 200 µg/mL
[4]
  MIC: > 200 µg/mL
Enterococcus faecium
  MIC: > 200 µg/mL
Klebsiella pneumoniae
  MIC: > 200 µg/mL
[5]
  inhibition: 70.2%
Escherichia coli [6]
  MIC: > 200 µg/mL
Staphylococcus aureus
  MIC: > 200 µg/mL
[7]
  IC50: 0.4 nM
Pseudomonas aeruginosa
  MIC: > 200 µg/mL
Vero
  IC50: 25 µg/mL (≈ 90.4 µM)

## O=C(NCCc1ccccc1)NC1C2CC3CC(C2)CC1C3 (stereo not drawn)
Enterococcus faecalis
  MIC: > 200 µg/mL
Bacillus anthracis
  MIC: > 200 µg/mL
[1]
  MIC: 0.01 µg/mL (≈ 0.0335 µM)
[2]
  inhibition: 34.1%
Escherichia coli [3]
  MIC: > 200 µg/mL
[4]
  MIC: 25 µg/mL (≈ 83.8 µM)
Enterococcus faecium
  MIC: > 200 µg/mL
Klebsiella pneumoniae
  MIC: > 200 µg/mL
[5]
  inhibition: 87.9%
Escherichia coli [6]
  MIC: > 200 µg/mL
Staphylococcus aureus
  MIC: > 200 µg/mL
[7]
  IC50: 4.5 nM
Pseudomonas aeruginosa
  MIC: > 200 µg/mL
Vero
  IC50: 30.2 µg/mL (≈ 101 µM)

## Cc1ccc(NC(=O)NCc2cccc(F)c2)cc1Cl
Enterococcus faecalis
  MIC: > 200 µg/mL
Bacillus anthracis
  MIC: > 200 µg/mL
[1]
  MIC: 6 µg/mL (≈ 20.5 µM)
[2]
  inhibition: 18.6%
Escherichia coli [3]
  MIC: > 200 µg/mL
[4]
  MIC: > 200 µg/mL
Enterococcus faecium
  MIC: > 200 µg/mL
Klebsiella pneumoniae
  MIC: > 200 µg/mL
[5]
  inhibition: 19%
Escherichia coli [6]
  MIC: > 200 µg/mL
Staphylococcus aureus
  MIC: > 200 µg/mL
[7]
  IC50: 16.6 nM
Pseudomonas aeruginosa
  MIC: > 200 µg/mL
Vero
  IC50: 342 µg/mL (≈ 1170 µM)

## CCCCCNC(=O)NC1C2CC3CC(C2)CC1C3 (stereo not drawn)
Enterococcus faecalis
  MIC: > 200 µg/mL
Bacillus anthracis
  MIC: > 200 µg/mL
[1]
  MIC: 0.39 µg/mL (≈ 1.47 µM)
[2]
  inhibition: 58.6%
Escherichia coli [3]
  MIC: > 200 µg/mL
[4]
  MIC: 12.5 µg/mL (≈ 47.3 µM)
Enterococcus faecium
  MIC: > 200 µg/mL
Klebsiella pneumoniae
  MIC: > 200 µg/mL
[5]
  inhibition: 90.5%
Escherichia coli [6]
  MIC: > 200 µg/mL
Staphylococcus aureus
  MIC: > 200 µg/mL
[7]
  IC50: 6.4 nM
Pseudomonas aeruginosa
  MIC: > 200 µg/mL
Vero
  IC50: 11.6 µg/mL (≈ 43.9 µM)

## CC(C)(C)NC(=O)NC1C2CC3CC(C2)CC1C3 (stereo not drawn)
Enterococcus faecalis
  MIC: > 200 µg/mL
Bacillus anthracis
  MIC: > 200 µg/mL
[1]
  MIC: 12.5 µg/mL (≈ 49.9 µM)
[2]
  inhibition: 20.7%
Escherichia coli [3]
  MIC: > 200 µg/mL
[4]
  MIC: > 200 µg/mL
Enterococcus faecium
  MIC: > 200 µg/mL
Klebsiella pneumoniae
  MIC: > 200 µg/mL
[5]
  inhibition: 55.4%
Escherichia coli [6]
  MIC: > 200 µg/mL
Staphylococcus aureus
  MIC: > 200 µg/mL
[7]
  IC50: 24.2 nM
Pseudomonas aeruginosa
  MIC: > 200 µg/mL
Vero
  IC50: 372 µg/mL (≈ 1490 µM)

## Cc1ccc(NC(=O)NC2CCCCCCC2)cc1Cl
Enterococcus faecalis
  MIC: > 200 µg/mL
Bacillus anthracis
  MIC: > 200 µg/mL
[1]
  MIC: 0.01 µg/mL (≈ 0.0339 µM)
[2]
  inhibition: 83.6%
Escherichia coli [3]
  MIC: > 200 µg/mL
[4]
  MIC: 0.8 µg/mL (≈ 2.71 µM)
Enterococcus faecium
  MIC: > 200 µg/mL
Klebsiella pneumoniae
  MIC: > 200 µg/mL
[5]
  inhibition: 98.2%
Escherichia coli [6]
  MIC: > 200 µg/mL
Staphylococcus aureus
  MIC: > 200 µg/mL
[7]
  IC50: 0.4 nM
Pseudomonas aeruginosa
  MIC: > 200 µg/mL
Vero
  IC50: > 400 µg/mL
